What was measured:
[1] = test system: LNCaP prostate cancer cells; experiment: Growth inhibition of LNCaP prostate cancer cells; assay type: cell-based; settings: Homo sapiens
Method: (§1) LNCaP and 22Rv1 prostate cancer cells and human fibroblasts HFF cells were treated with compounds 1, 2, 3, and 4.

[2] = test system: 22Rv1 prostate cancer cells; experiment: Growth inhibition of 22Rv1 prostate cancer cells; assay type: cell-based; settings: Homo sapiens
Method: as §1

[3] = test system: human fibroblasts HFF cells; experiment: Growth inhibition of human fibroblasts HFF cells; assay type: cell-based
Method: as §1

[4] = test system: cFLIP; experiment: cFLIP reduction in ACHN cells (Western blotting); assay type: cell-based, human; settings: ACHN renal carcinoma cells; 125, 250, 500 nM; 24 h; compared with compound 1
Method: This example the effect of compounds 1 and 3 on the reduction of cFLIP in ACHN human carcinoma cells as a function of concentration after 24 exposure to the compounds.
ACHN human renal carcinoma cells were treated with 125 nM, 250 nM, and 500 nM of compounds 1 and 3. After 24 h exposure to the compounds, Western blotting was performed to separate FLIPL and FLIPS, and the results shown in FIG. 3.

[5] = test system: cFLIP; experiment: cFLIP reduction in M14 melanoma cells (Western blotting); assay type: cell-based, human; settings: 0-500 nM, 24 h, compared with compound 1
Method: M14 human melanoma cells were treated with 0, 31.25, 62.5, 125, 250, or 500 nM of compounds 1 and 3. After 24 h, Western blotting was performed to separate cFLIPL, cFLIPS, and GAPDH.

[6] = test system: 888, 1383, and Baldwin renal melanoma cells; experiment: Sensitization of 888, 1383 and Baldwin melanoma cells to TRAIL apoptosis; assay type: cell-based, human; settings: 888, 1383, Baldwin melanoma cells; compared to Birinapant or ABT-737
Method: 888, 1383, and Baldwin renal melanoma cells were treated with compound 1 of compound 3, the Birinapant, or ABT-737 in the presence and absence of TRAIL.

[7] = test system: B16F10 melanoma; experiment: B16F10 melanoma xenograft model in C57B/6 mice; assay type: in vivo; settings: intra-tumor twice a week for 3 weeks; versus vehicle and compound 1
Method: C57B/6 mice were injected with 5×10^5 B16F10 melanoma cells s.c. Tumors were allowed to grow 8-10 days and then vehicle, compound 1, or compound 3 were injected intra-tumor twice a week for 3 weeks. Tumor growth was monitored until endpoint.

[8] = test system: cFLIP; experiment: cFLIP levels in LNCaP prostate cancer cells (Western blot); assay type: cell-based; settings: 125 nM, 250 nM, or 500 nM
Method: LNCaP prostate cancer cells were treated with 125 nM, 250 nM, or 500 nM of compounds 1 or 3.

[9] = test system: cFLIP; experiment: cFLIP levels in 22Rv1 prostate cancer cells (Western blot); assay type: cell-based; settings: 22Rv1 cells; 125 nM, 250 nM, or 500 nM
Method: 22Rv1 prostate cancer cells were treated with 125 nM, 250 nM, or 500 nM of compounds 1 or 3.

[10] = test system: ACHN, SN12C, Caki-2, TK-10, and UO-31 renal carcinoma cells; experiment: Sensitization of renal carcinoma cell lines to TRAIL apoptosis, comparison with IAP and Bcl-2 antagonists; assay type: cell-based, human; settings: 5 renal carcinomas; compared to Birinapant, GDC-0152, LCL-161, ABT-199 and ABT-737
Method: ACHN, S[…], Caki-2, TK-10, and UO-31 cells were treated with compound 1, the IAP antagonists Birinapant, GDC-0152, or LCL-161 and the Bcl-2 antagonists ABT-199 and ABT-737 in the presence and absence of TRAIL.

[11] = test system: SK-MEL-28 melanoma cells; experiment: Killing of SK-MEL-28 melanoma cells by activated human T cells (crystal violet); assay type: cell-based; settings: PCC 500 nM 24 h before T cells
Method: 6 well costar plates were precoated with anti-CD3 (1 ug/ml) in PBS overnight at 4° C. Wells were washed with PBS then blocked with RPMI+10% FBS for 30 min before adding anti-CD28 (0.2 ug/ml) and purified T cells.
T cells were isolated from human PBMCs using Pan T cell isolation kit (Miltenyi Biotech) as per manufacturers protocol, added to the costar plates and incubated at 37° C. 24 hours later activated T cells were used as effectors.
SK-MEL-28 cells (200,000) were added to costar 6 plates. After 24 h PCC (500 nM) or control DMSO was added, followed 24 h later by addition of activated T cells at different target to effector ratios. After a further 24 hours plates were washed and adherent melanoma cells were fixed with methanol and stained with crystal violet.
SK-MEL-28 melanoma cells were treated with media, compound 1, or compound 1+α-TNFα and then incubated with the activated human T cells.

Row | SMILES | IC50 [1] [nM] | IC50 [2] [nM] | IC50 [3] [nM] | cFLIP reduction [4] | cFLIP reduction [5] | sensitization of TRAIL apoptosis [6] | tumor volume [7] | cFLIP levels [8] | cFLIP levels [9] | sensitization of TRAIL apoptosis [10] | killing of human melanoma cells by activated T cells [11]
1 | CC1=C(C)C(=O)O[C@@H]([C@](C)(O)[C@]2(O)CC[C@@]3(O)[C@@H]4C[C@H]5O[C@]56CC=CC(=O)[C@]6(C)[C@H]4CC[C@]23COC(=O)c2ccc(C)o2)C1 [Compound 3, withaperuvin E] | 14 ± 1 | 10 ± 2 | 892 ± 119 | elevated activity over compound 1 | elevated activity over compound 1 | superior results | lowest | reduction of cFLIP levels | reduction of cFLIP levels |  | 
2 | CC(=O)OC[C@]12CC[C@H]3[C@@H](C[C@H]4O[C@]45CC=CC(=O)[C@]35C)[C@]1(O)CC[C@@]2(O)[C@@](C)(O)[C@H]1CC(C)=C(C)C(=O)O1 [Compound 1, Physachenolide C] | 37 ± 2 | 48 ± 2 | > 2000 |  |  | superior results |  | reduction of cFLIP levels | reduction of cFLIP levels | superior results | enhanced the killing
3 | CC1=C(C)C(=O)O[C@@H]([C@](C)(O)[C@]2(O)CC[C@@]3(O)[C@@H]4C[C@H]5O[C@]56CC=CC(=O)[C@]6(C)[C@H]4CC[C@]23COC(=O)c2ccc(C)nc2)C1 [Compound 4] | 17 ± 8 | 17 ± 1 | 945 ± 92 |  |  |  |  |  |  |  | 
4 | COc1ccc(C(=O)OC[C@]23CC[C@H]4[C@@H](C[C@H]5O[C@]56CC=CC(=O)[C@]46C)[C@]2(O)CC[C@@]3(O)[C@@](C)(O)[C@H]2CC(C)=C(C)C(=O)O2)cc1 [Compound 2] | 18 ± 2 | 16 ± 4 | 938 ± 10 |  |  |  |  |  |  |  | 

Reference: patent US12018045B2, “17-beta-hydroxywithanolides and use thereof in treating cancer” (The United States of America, as represented by the …, priority 2018, dated 2024)
